Experimental data as given in patent publication US20160193216A1 (Nimbus Iris, Inc., priority 2012, published 2016).
pIC50: −log10 of the molar value.

Each molecule was assayed against T1, IRAK4 (Homo sapiens, UniProt Q9NWZ3) (assay: IRAK-4 activity inhibition assay (Caliper)). Conditions: 37 μM ATP, 3.5 nM IRAK4.
T1 sequence (Q9NWZ3 1-460): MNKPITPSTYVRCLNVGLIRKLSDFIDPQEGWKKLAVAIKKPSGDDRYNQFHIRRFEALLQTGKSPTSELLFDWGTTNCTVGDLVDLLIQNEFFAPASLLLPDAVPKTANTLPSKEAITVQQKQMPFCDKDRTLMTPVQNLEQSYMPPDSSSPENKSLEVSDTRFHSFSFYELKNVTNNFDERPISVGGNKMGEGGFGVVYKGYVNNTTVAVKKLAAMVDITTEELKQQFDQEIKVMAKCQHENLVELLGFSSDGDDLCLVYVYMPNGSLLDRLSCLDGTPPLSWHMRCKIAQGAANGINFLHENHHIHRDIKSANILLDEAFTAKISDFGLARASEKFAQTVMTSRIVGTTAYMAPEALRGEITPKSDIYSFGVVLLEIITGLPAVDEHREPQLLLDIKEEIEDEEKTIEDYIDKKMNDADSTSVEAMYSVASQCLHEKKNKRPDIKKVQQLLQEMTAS
Assay type: biochemical
Procedure: A 1× kinase base buffer was prepared from 50 mM HEPES, pH 7.5 and 0.0015% Brij-35. A stop buffer was prepared from 100 mM HEPES, pH 7.5, 0.015% Brij-35, 0.2% Coating Reagent #3, and 50 mM EDTA.
Test compound was diluted to 50× of the final desired highest inhibitor concentration in reaction by 100% DMSO. 100 μl of this compound dilution was transferred to a well in a 96-well plate.
Test compound was serially diluted by transferring 30 μl to 60 μl of 100% DMSO in the next well and so forth for a total of 10 concentrations. 100 μl of 100% DMSO was added to two empty wells for no compound control and no enzyme control in the same 96-well plate.
A new 96-well plate was marked as intermediate plate. 5 μl of compound serial dilution was transferred from source plate to the corresponding wells of the intermediate plate. 45 μl of 1× kinase base buffer (KB buffer) was added to each well of the intermediate plate. The intermediate plate was placed for 10 min on a shaker.
5 μl of each well was transferred from the 96-well intermediate plate to a 384-well plate in duplicates. […] A2 of the 96-well plate is transferred to A3 and A4 of the 384-well plate, and so on.
IRAK4 and DTT in 1× kinase base buffer was added.
Assay plate already contained 5 μl of compound in 10% DMSO. Added 10 μl of 2.5× enzyme solution to each well of the 384-well assay plate, except no enzyme control wells. […] Added 10 μl of 1× kinase base buffer to no enzyme control wells in the assay plate. Incubated at room temperature for 10 min.
Added 10 μl of 2.5× peptide solution to each well of the 384-well assay plate. […] Incubated at 28° C. for 40 minutes. Added 25 μl of stop buffer to stop reaction. Collected data on Caliper.
Copied conversion % data from Caliper program. Converted conversion % values to percent inhibition values. Percent inhibition=(max−conversion %)/(max−min)*100, where “max” means the conversion % of DMSO control and “min” means the conversion % of no enzyme control.
The compound numbers correspond to the compound numbers in Table 1. […] “NA” stands for “not assayed.”

Structure (SMILES) | pIC50
CN(C)[C@H]1CC[C@H](Oc2ncnc3sc4c(c23)C(CCO)CC4)CC1 (stereo partly shown) [Compound I-21, 2-(4-(((1r,4r)-4-(dimethylamino)cyclohexyl)oxy)-6,7-dihydro-5H-cyclopenta[4,5]thieno[2,3-d]pyrimidin-5-yl)ethanol] | > 5.30
CN(C)[C@H]1CC[C@H](Oc2ncnc3sc4c(c23)C(CC#N)CC4)CC1 (stereo partly shown) [Compound I-22, 2-(12-[[4-(dimethylamino)cyclohexyl]oxy]-7-thia-9,11-diazatricyclo[6.4.0.0[2,6]]dodeca-1(8),2(6),9,11-tetraen-3-yl)acetonitrile] | 4.70 to 5.30
CCNC(=O)CC1CCc2sc3ncnc(N[C@H]4CC[C@H](N(C)C)CC4)c3c21 (stereo partly shown) [Compound I-23, 2-(12-[[4-(dimethylamino)cyclohexyl]amino]-7-thia-9,11-diazatricyclo[6.4.0.0̂[2,6]]dodeca-1(8),2(6),9,11-tetraen-3-yl)-N-ethylacetamide] | 4.70 to 5.30
CN(C)[C@H]1CC[C@H](Nc2ncnc3sc4c(c23)C(C(=O)NCc2ccccc2)CC4)CC1 (stereo partly shown) [Compound I-24, N-benzyl-12-[[4-(dimethylamino)cyclohexyl]amino]-7-thia-9,11-diazatricyclo[6.4.0.0̂[2,6]]dodeca-1(12),2(6),8,10-tetraene-3-carboxamide] | 4.30 to 4.70
CN(C)[C@H]1CC[C@H](Nc2ncnc3sc4c(c23)C(C(=O)NCc2cccnc2)CC4)CC1 (stereo partly shown) [Compound I-25, 12-[[4-(dimethylamino)cyclohexyl]amino]-N-(pyridin-3-ylmethyl)-7-thia-9,11-diazatricyclo[6.4.0.0̂[2,6]]dodeca-1(12),2(6),8,10-tetraene-3-carboxamide] | 4.30 to 4.70
CN(C)[C@H]1CC[C@H](Nc2ncnc3sc4c(c23)C(CC(=O)NCCO)CC4)CC1 (stereo partly shown) [Compound I-26, 2-(12-[[4-(dimethylamino)cyclohexyl]amino]-7-thia-9,11-diazatricyclo[6.4.0.0̂[2,6]]dodeca-1(8),2(6),9,11-tetraen-3-yl)-N-(2-hydroxyethyl)acetamide] | 4.70 to 5.30
CN(C)[C@H]1CC[C@H](Nc2ncnc3sc4c(c23)C(C(=O)NCCCO)CC4)CC1 (stereo partly shown) [Compound I-28, 12-[[4-(dimethylamino)cyclohexyl]amino]-N-(3-hydroxypropyl)-7-thia-9,11-diazatricyclo[6.4.0.0̂[2,6]]dodeca-1(12),2(6),8,10-tetraene-3-carboxamide] | 4.30 to 4.70
CN(CCO)C(=O)C1CCc2sc3ncnc(N[C@H]4CC[C@H](N(C)C)CC4)c3c21 (stereo partly shown) [Compound I-29, 12-[[4-(dimethylamino)cyclohexyl]amino]-N-(2-hydroxyethyl)-N-methyl-7-thia-9,11-diazatricyclo[6.4.0.0̂[2,6]]dodeca-1(12),2(6),8,10-tetraene-3-carboxamide] | < 4.30
CN(CCO)C(=O)CC1CCc2sc3ncnc(N[C@H]4CC[C@H](N(C)C)CC4)c3c21 (stereo partly shown) [Compound I-30, 2-(12-[[4-(dimethylamino)cyclohexyl]amino]-7-thia-9,11-diazatricyclo[6.4.0.0̂[2,6]]dodeca-1(8),2(6),9,11-tetraen-3-yl)-N-(2-hydroxyethyl)-N-methylacetamide] | 4.30 to 4.70
CCOCCC1CCc2sc3ncnc(O[C@H]4CC[C@H](N(C)C)CC4)c3c21 (stereo partly shown) [Compound I-31, 4-[[3-(2-ethoxyethyl)-7-thia-9,11-diazatricyclo[6.4.0.0[2,6]]dodeca-1(8),2(6),9,11-tetraen-12-yl]oxy]-N,N-dimethylcyclohexan-1-amine] | 4.70 to 5.30
COCCC1CCc2sc3ncnc(O[C@H]4CC[C@H](N(C)C)CC4)c3c21 (stereo partly shown) [Compound I-32, 4-[[3-(2-methoxyethyl)-7-thia-9,11-diazatricyclo[6.4.0.0[2,6]]dodeca-1(8),2(6),9,11-tetraen-12-yl]oxy]-N,N-dimethylcyclohexan-1-amine] | > 5.30
CN(C)[C@H]1CC[C@H](Oc2ncnc3sc4c(c23)[C@H](CCO)CC4)CC1 [Compound I-33, 2-[(3S)-12-[[4-(dimethylamino)cyclohexyl]oxy]-7-thia-9,11-diazatricyclo[6.4.0.0[2,6]]dodeca-1(12),2(6),8,10-tetraen-3-yl]ethan-1-ol] | > 5.30
CCNC(=O)C[C@@H]1CCc2sc3ncnc(O[C@H]4CC[C@H](N(C)C)CC4)c3c21 [Compound I-36, 2-[(3S)-12-[[4-(dimethylamino)cyclohexyl]oxy]-7-thia-9,11-diazatricyclo[6.4.0.0[2,6]]dodeca-1(12),2(6),8,10-tetraen-3-yl]-N-ethylacetamide] | < 4.30
CN(C)[C@H]1CC[C@H](Oc2ncnc3sc4c(c23)[C@@H](CC(=O)Nc2ccc(F)cn2)CC4)CC1 [Compound I-37, 2-[(3R)-12-[[4-(dimethylamino)cyclohexyl]oxy]-7-thia-9,11-diazatricyclo[6.4.0.0[2,6]]-dodeca-1(8),2(6),9,11-tetraen-3-yl]-N-(5-fluoropyridin-2-yl)acetamide] | > 5.30
CN(C)[C@H]1CC[C@H](Oc2ncnc3sc4c(c23)[C@H](CC(=O)Nc2ccc(F)cn2)CC4)CC1 [Compound I-38, 2-[(3S)-12-[[4-(dimethylamino)cyclohexyl]oxy]-7-thia-9,11-diazatricyclo[6.4.0.0[2,6]]dodeca-1(8),2(6),9,11-tetraen-3-yl]-N-(5-fluoropyridin-2-yl)acetamide] | 4.30 to 4.70
CCSCC1CCc2sc3ncnc(O[C@H]4CC[C@H](N(C)C)CC4)c3c21 (stereo partly shown) [Compound I-39, 4-([3-[(ethylsulfanyl)methyl]-7-thia-9,11-diazatricyclo[6.4.0.0[2,6]]dodeca-1(12),2(6),8,10-tetraen-12-yl]oxy)-N,N-dimethylcyclohexan-1-amine] | > 5.30
C[C@@H](O)C[C@H]1CCc2sc3ncnc(O[C@H]4CC[C@H](N(C)C)CC4)c3c21 [Compound I-41, (2R)-1-[(3R)-12-[[4-(dimethylamino)cyclohexyl]oxy]-7-thia-9,11-diazatricyclo[6.4.0.0[2,6]]dodeca-1(8),2(6),9,11-tetraen-3-yl]propan-2-ol] | > 5.30
CCS(=O)(=O)CC1CCc2sc3ncnc(O[C@H]4CC[C@H](N(C)C)CC4)c3c21 (stereo partly shown) [Compound I-47, 4-([3-[(ethanesulfonyl)methyl]-7-thia-9,11-diazatricyclo[6.4.0.0[2,6]]dodeca-1(12),2(6),8,10-tetraen-12-yl]oxy)-N,N-dimethylcyclohexan-1-amine] | > 5.30
C#CCOC[C@@H]1CCc2sc3ncnc(O[C@H]4CC[C@H](N(C)C)CC4)c3c21 [Compound I-48, N,N-dimethyl-4-[[(3R)-3-[(prop-2-yn-1-yloxy)methyl]-7-thia-9,11-diazatricyclo[6.4.0.0[2,6]]dodeca-1(8),2(6),9,11-tetraen-12-yl]oxy]cyclohexan-1-amine] | > 5.30
C#CCOC[C@H]1CCc2sc3ncnc(O[C@H]4CC[C@H](N(C)C)CC4)c3c21 [Compound I-49, N,N-dimethyl-4-[[(3S)-3-[(prop-2-yn-1-yloxy)methyl]-7-thia-9,11-diazatricyclo[6.4.0.0[2,6]]dodeca-1(8),2(6),9,11-tetraen-12-yl]oxy]cyclohexan-1-amine] | > 5.30
CCC(O)[C@H]1CCc2sc3ncnc(O[C@H]4CC[C@H](N(C)C)CC4)c3c21 (stereo partly drawn) [Compound I-50, (S)-1-((S)-4-(((1r,4S)-4-(dimethylamino)cyclohexyl)oxy)-6,7-dihydro-5H-cyclopenta[4,5]thieno[2,3-d]pyrimidin-5-yl)propan-1-ol] | 4.70 to 5.30
CC[C@@H](O)C[C@H]1CCc2sc3ncnc(N[C@H]4CC[C@H](N(C)C)CC4)c3c21 [Compound I-52] | > 5.30
C[C@@H](O)C[C@H]1CCc2sc3ncnc(N[C@H]4CC[C@H](N(C)C)CC4)c3c21 [Compound I-53] | > 5.30
CC[C@H](O)C[C@H]1CCc2sc3ncnc(N[C@H]4CC[C@H](N(C)C)CC4)c3c21 [Compound I-54] | > 5.30
C[C@H](O)C[C@H]1CCc2sc3ncnc(N[C@H]4CC[C@H](N(C)C)CC4)c3c21 [Compound I-55] | > 5.30
